We go through seven molecules from patent publication US12606568B2, “SMARCA degraders and uses thereof” (Kymera Therapeutics, Inc., priority 2020, dated 2026).

What all share (format): cell-based
Assay [1] deals with T1, SMARCA2 (Homo sapiens, UniProt P51531). The assay can be described thus: SMARCA2 Western blot MV4-11 degradation. Particulars: for DC50 / Dmax: 24 h; for DC50: read-out: SMARCA2 MSD MV411 degradation 24 h: Mean external-Abs DC50; for Dmax: MV4-11, MV4-11 cells, read-out: SMARCA2 MSD MV411 degradation 24 h: average Dmax %. Details: SMARCA2 and SMARCA4 protein degradation in MV4-11 cells; endogenous in cells; host or cells: MV4-11. Background: Immunoblotting shows a protein as a band on a membrane.
T1 sequence (P51531 whole entry): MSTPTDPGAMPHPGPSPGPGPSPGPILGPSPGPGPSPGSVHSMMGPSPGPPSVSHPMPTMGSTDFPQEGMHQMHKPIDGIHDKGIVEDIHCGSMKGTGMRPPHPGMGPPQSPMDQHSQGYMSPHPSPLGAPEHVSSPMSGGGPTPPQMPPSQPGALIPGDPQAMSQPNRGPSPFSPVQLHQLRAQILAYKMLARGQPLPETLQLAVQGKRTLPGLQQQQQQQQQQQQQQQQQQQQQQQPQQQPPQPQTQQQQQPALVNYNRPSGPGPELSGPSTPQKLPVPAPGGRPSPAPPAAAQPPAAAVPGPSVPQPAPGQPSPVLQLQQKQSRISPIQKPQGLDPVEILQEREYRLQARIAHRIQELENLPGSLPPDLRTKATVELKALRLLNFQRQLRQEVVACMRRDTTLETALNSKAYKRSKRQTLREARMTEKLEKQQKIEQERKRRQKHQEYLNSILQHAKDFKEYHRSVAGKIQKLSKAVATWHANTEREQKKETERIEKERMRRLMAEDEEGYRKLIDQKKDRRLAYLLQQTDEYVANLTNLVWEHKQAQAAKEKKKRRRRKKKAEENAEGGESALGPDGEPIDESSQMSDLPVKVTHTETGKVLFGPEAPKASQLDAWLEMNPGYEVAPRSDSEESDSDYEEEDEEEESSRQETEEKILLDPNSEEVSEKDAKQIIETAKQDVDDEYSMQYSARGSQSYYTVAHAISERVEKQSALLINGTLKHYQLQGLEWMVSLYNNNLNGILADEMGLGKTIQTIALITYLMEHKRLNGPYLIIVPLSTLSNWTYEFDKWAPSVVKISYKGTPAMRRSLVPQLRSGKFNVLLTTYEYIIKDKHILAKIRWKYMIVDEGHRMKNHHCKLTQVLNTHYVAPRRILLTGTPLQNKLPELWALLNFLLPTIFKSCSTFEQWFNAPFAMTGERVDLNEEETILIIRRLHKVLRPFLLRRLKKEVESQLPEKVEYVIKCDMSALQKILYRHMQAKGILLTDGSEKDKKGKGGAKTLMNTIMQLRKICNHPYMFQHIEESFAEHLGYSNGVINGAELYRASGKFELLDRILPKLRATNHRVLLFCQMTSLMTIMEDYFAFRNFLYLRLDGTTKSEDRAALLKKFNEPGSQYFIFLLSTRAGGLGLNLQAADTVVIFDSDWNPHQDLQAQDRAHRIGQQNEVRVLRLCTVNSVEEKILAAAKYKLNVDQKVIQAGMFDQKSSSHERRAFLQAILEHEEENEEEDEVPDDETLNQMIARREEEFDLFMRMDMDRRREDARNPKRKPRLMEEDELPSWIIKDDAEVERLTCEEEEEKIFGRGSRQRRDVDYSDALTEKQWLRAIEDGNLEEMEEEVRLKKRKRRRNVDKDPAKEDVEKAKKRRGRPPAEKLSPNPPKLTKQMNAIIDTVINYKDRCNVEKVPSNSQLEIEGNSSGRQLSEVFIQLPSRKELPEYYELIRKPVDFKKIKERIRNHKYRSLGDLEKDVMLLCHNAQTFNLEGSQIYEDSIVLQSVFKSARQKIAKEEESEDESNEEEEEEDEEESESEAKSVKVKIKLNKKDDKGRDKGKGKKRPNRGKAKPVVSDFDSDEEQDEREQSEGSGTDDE

In a further assay the target is T2, SMARCA4 (Homo sapiens, UniProt P51532).
T2 construct: SMARCA2 and SMARCA4 protein degradation in MV4-11 cells; endogenous in cells; host or cells: MV4-11
T2 sequence (P51532 whole entry): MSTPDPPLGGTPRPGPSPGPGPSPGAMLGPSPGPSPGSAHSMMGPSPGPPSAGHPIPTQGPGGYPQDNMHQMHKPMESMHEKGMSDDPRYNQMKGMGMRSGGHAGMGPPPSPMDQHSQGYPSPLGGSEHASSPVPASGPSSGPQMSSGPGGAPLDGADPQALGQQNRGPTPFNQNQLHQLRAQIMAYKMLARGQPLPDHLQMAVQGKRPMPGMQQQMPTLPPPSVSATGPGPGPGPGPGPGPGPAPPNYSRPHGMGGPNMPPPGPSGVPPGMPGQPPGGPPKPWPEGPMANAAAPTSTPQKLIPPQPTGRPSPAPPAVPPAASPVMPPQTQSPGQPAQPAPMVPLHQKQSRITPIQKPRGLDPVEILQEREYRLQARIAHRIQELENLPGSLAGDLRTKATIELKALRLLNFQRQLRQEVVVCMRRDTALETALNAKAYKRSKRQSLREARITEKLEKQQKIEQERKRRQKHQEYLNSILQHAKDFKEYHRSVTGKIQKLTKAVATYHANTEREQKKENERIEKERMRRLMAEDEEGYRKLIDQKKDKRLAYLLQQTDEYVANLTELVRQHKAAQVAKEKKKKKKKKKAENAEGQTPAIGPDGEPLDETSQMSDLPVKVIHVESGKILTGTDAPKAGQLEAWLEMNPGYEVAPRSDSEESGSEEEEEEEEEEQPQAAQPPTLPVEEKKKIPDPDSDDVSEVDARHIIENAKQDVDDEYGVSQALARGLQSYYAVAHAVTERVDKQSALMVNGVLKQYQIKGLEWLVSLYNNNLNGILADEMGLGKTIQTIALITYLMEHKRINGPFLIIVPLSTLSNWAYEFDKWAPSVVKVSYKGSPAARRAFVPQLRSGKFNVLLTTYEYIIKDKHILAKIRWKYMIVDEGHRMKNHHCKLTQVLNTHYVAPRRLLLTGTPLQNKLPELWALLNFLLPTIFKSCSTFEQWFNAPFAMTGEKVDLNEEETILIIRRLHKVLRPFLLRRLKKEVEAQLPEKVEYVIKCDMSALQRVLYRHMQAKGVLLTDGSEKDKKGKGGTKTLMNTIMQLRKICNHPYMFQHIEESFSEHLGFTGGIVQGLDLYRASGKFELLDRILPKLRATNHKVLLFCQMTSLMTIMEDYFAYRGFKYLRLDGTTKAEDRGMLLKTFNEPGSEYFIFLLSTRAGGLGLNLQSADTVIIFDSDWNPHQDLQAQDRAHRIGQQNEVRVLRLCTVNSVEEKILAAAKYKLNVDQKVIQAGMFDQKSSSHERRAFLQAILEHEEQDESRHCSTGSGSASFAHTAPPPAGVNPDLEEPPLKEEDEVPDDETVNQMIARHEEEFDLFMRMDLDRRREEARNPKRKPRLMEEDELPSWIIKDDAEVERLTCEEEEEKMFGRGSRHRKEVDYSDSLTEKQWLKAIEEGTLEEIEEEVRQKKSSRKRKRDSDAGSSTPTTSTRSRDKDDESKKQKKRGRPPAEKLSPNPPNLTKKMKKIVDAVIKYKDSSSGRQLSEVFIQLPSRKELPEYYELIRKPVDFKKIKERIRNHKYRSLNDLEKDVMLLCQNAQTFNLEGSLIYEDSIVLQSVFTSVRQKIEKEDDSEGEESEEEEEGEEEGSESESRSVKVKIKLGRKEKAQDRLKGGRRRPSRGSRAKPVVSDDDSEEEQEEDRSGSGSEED
Nature of the assay: SMARCA4 Western blot MV4-11 degradation. The settings on record: for DC50 / Dmax: 24 h; for DC50: read-out: SMARCA4 MSD MV411 degradation 24 h: Mean external-Abs DC50; for Dmax: MV4-11, MV4-11 cells, read-out: SMARCA4 MSD MV411 degradation 24 h: average Dmax %. The protocol: Example 54. SMARCA2 and SMARCA 4 Western Blot MV4-11 Degradation
Cells were seeded into 6-well plates (MV4-11: 4×10^6 cells/well/1 ml) and 1 ml of 2× compound solution was added into the well to make the final concentration and the plates were mixed well and incubated for 24 hours (No cytotoxicity was observed). The cell were collected with media and spun at 3000 rpm for 5 minutes. The supernatant was aspirated and the well and the cells were washed with cold PBS once and combined for centrifugation again; the supernatant aspirated again. 200 ul pre-chilled RIPA lysis buffer (Boston BioProducts BP-115D) with protease/phosphatase inhibitor (Roche 05892791001/Roche 04906837001) was directly added into the tube to lyze the cells for 20 minutes on ice. The cell lysate were collected into EP tubes and spun at 13000 rpm for 20 minutes and 72 ul supernatant was transferred to a fresh EP tube containing 18 ul of 5× loading buffer (Beyotime Bio P0015) to make the loading samples. The samples were heated to 100° C. for 10 minutes and cooled to RT and microcentrifuged. 20 ul of samples were loaded onto SDS-PAGE gel (Novex, WG1402BOX) and the gel was run at 80 V for 20 minutes and 120 V for 1.5 hours. The samples were electrotransfer to a NC membrane using wet-transfer method with 250 mA for 2.5 hours. The membrane was blocked with LICOR blocking buffer (LI-COR, 927-50000) for 1 hour. The membrane was washed three times with TBST (CST #9997S), 5 minutes each. Incubation was performed with primary antibody prepared in blocking buffer with 0.1% Tween-20 (Solarbio, P8220) at 4° C. overnight (Anti-SMARCA2/BRM antibody (ab15597) 1:500; Anti-BRG1 antibody [EPR3912] (ab108318) 1:1000; Rabbit anti-Baf180 antibody [EPR15860] (Abcam, ab196022) 1:1000; mouse anti-beta-Actin (8H10D10) (CST #3700) 1:10000). The membrane was washed three times with TBST, 5 minutes each. Incubation with secondary antibody was performed for 1 hour at RT (anti-rabbit IgG (Licor, 926-32211) 1:5000; anti-mouse IgG (LI-COR, 926-68070) 1:5000). The membrane was washed three times with TBST, 5 minutes each and lastly the LiCOR was read.
The letter codes for SMARCA degradation potency (DC50) include: A (<100 nM), B (100-500 nM), C (501-1000 nM), and D (>1000 nM). The letter codes for the percentage of SMARCA degradation after 24 hours (Dmax %) include: A (>90% degradation), B (>70-90% degradation), C (50-70% degradation), and D (<50% degradation).

Assay [2] deals with T1, SMARCA2. The assay can be described thus: MSD SMARCA2 degradation in A549 cell line. Details: endogenous in cells. The settings on record: for DC50 / Dmax: 24 h; for DC50: read-out: SMARCA2 MSD A549 degradation 24 h: Average external-Abs DC50; for Dmax: A549, A549 cells. The protocol:
Example 53. MSD SMARCA2 Degradation in A549 Cell Line
Cells were seeded into 96-well plates (A549 cells: 2×10^4 cells/well/100 ul media) abd incubated overnight. The next day, 200 nl compound were added into the intermediate plate with Echo (Labcyte 550) from source plate containing a 3-fold serial dilution from top concentration of 1 mM. The culture medium was changed with 80 ul of fresh medium and 80 ul of 2× compound solution was added into the well to make a final concentration of 1000 nM, 333.3 nM, 111.1 nM, 37.04 nM, 12.35 nM, 4.115 nM, 1.372 nM, 0.457 nM, 0.152 nM and 0 nM (DMSO). The wells were mixed and then incubated for 24 hours. The media was aspirated from the cultures and 60 ul pre-chilled PIPA lysis buffer (Boston BioProducts BP-115D) with protease/phosphatase inhibitor (Roche 05892791001/Roche 04906837001) was added into the well to lyze the cells for 20 minutes at 4° C. The MSD plate (L15XA) was coated with 40 ul cell lysate and incubated at 4° C. overnight. The next day, the plate was washed three times with TBST (CST #9997S), 150 ul/well. The MSD plates was blocked with 150 ul blocking buffer per well and shaked for 1 hr at R^†, 600 rpm. The blocking buffer was 3% Blocker A (MSD, R93BA-4) in TBST. The MSD plate was washed three times with 150 ul/well of TBST and 25 ul/well of detection antibody (Rabbit anti-SMARCA2/BRM antibody, 100 μg/ml, ab223735) was added at final concentration of 1 ug/mi diluted in 1% o Blocking buffer and shaken for 1 hour at R^†, 600 rpm. The MSD plate was washed three times with 150 ul/well of TBST and 25 ul/well of SULFO-TAG anti-rabbit antibody (MSD, R32AB-1) was added at final concentration of 1 μg/ml diluted in […] Blocking buffer and shaken for 1 hour at R^†, 600 rpm. The MSD plate was washed three times with 150 ul/well of TBST and 150 ul/well of 2×MSD reading buffer diluted from 4× (MSD, R92TC-2) with water was added. Lastly, the MSD instrument was read.
The letter codes for SMARCA2 degradation potency (DC50) include: A (<100 nM), B (100-500 nM), C (501-1000 nM), and D (>1000 nM). The letter codes for the percentage of SMARCA2 degradation after 24 hours (Dmax % o) include: A (>90% o degradation), B (>70-90% o degradation), C (50-70% o degradation), and D (<50% degradation).

Where only a bound is given, the exact number is not on record here.

`Cc1ncsc1-c1ccc(CNC(=O)[C@@H]2C[C@@H](O)CN2C(=O)[C@@H](NC(=O)[C@H]2CC3(C2)C[C@H](N2CCN(c4cnc(N5C6CCC5CN(c5cc(-c7ccccc7O)nnc5N)C6)nc4)CC2)C3)C(C)(C)C)cc1` (single isomer, unassigned) [I-9]: at SMARCA2 [1] (MV4-11 cells), the “SMARCA2 MSD MV411 degradation 24 h: average Dmax %” value is given as “B (B (>70-90% degradation))” and the DC50 (as a rule, the midpoint of the concentration-degradation curve) is less than 100 nM. For the same molecule, at SMARCA4 (MV4-11 cells), the “SMARCA4 MSD MV411 degradation 24 h: average Dmax %” value is “D (D (<50% degradation))” and the DC50 was more than 1000 nM. At SMARCA2 [2] (A549 cells), the “SMARCA2 MSD A549 degradation 24 h: Average Dmax %” value is “B (B (>70-90% o degradation))” and the DC50 lay in the range of 100 to 500 nM.
Turning to `Cc1ncsc1-c1ccc(CNC(=O)[C@@H]2C[C@@H](O)CN2C(=O)C(c2cc(N3CCC(CCN4CCC(c5cnc(N6C7CCC6CN(c6cc(-c8ccccc8O)nnc6N)C7)nc5)CC4)CC3)no2)C(C)C)cc1` (stereo partly drawn) [I-61, (2S,4R)-1-(2-(3-(4-(2-(4-(2-(3-(3-amino-6-(2-hydroxyphenyl)pyridazin-4-yl)-3,8-diazabicyclo[3.2.1]octan-8-yl)pyrimidin-5-yl)piperidin-1-yl)ethyl)piperidin-1-yl)isoxazol-5-yl)-3-methylbutanoyl)-4-hydroxy-N-(4-(4-methylthiazol-5-yl)benzyl)pyrrolidine-2-carboxamide], the Dmax on SMARCA2 [1], on SMARCA4 and on SMARCA2 [2] was more than 90% each time. Moreover, the DC50 on SMARCA2 [1] (MV4-11 cells), on SMARCA4 (MV4-11 cells) and at SMARCA2 [2] (A549 cells) was less than 100 nM in each case.
For `Cc1ncsc1-c1ccc(CNC(=O)[C@@H]2C[C@H](O)CN2C(=O)[C@@H](NC(=O)[C@H]2CC3(C2)C[C@H](N2CCC(c4cnc(N5C6CCC5CN(c5cc(-c7ccccc7O)nnc5N)C6)nc4)CC2)C3)C(C)(C)C)cc1` (stereo partly drawn) [I-79, (2S,4S)-1-((2S)-2-(6-(4-(2-(3-(3-amino-6-(2-hydroxyphenyl)pyridazin-4-yl)-3,8-diazabicyclo[3.2.1]octan-8-yl)pyrimidin-5-yl)piperidin-1-yl)spiro[3.3]heptane-2-carboxamido)-3,3-dimethylbutanoyl)-4-hydroxy-N-(4-(4-methylthiazol-5-yl)benzyl)pyrrolidine-2-carboxamide], the Dmax at SMARCA2 [1], at SMARCA4 and on SMARCA2 [2] was less than 50% in each case. Besides, the half-maximal degradation concentration (DC50) at SMARCA2 [1] (MV4-11 cells), at SMARCA4 (MV4-11 cells) and on SMARCA2 [2] (A549 cells) was more than 1000 nM each time.
For the molecule `Cc1ncsc1-c1ccc([C@H](C)NC(=O)[C@@H]2C[C@@H](O)CN2C(=O)[C@@H](NC(=O)[C@H]2CC3(C2)C[C@H](N2CCC(c4cnc(N5C6CCC5CN(c5cc(-c7ccccc7O)nnc5N)C6)nc4)CC2)C3)C(C)(C)C)cc1` (single isomer, unassigned) [I-1], the Dmax (as a rule, the greatest extent of degradation seen) at SMARCA2 [1] is 70 to 90%; at SMARCA4 it was 70 to 90%; at SMARCA2 [2], more than 90%. Also, the results for the 50% degradation concentration (DC50) at SMARCA2 [1] (MV4-11 cells), at SMARCA4 (MV4-11 cells) and at SMARCA2 [2] (A549 cells) were less than 100 nM, less than 100 nM and 100 to 500 nM, respectively.
On to `Cc1ncsc1-c1ccc(CNC(=O)[C@@H]2C[C@@H](O)CN2C(=O)[C@@H](NC(=O)[C@H]2CC3(C2)C[C@H](N2CCC(c4ccc(N5C6CCC5CN(c5cc(-c7ccccc7O)nnc5N)C6)cc4)CC2)C3)C(C)(C)C)cn1` (stereo partly drawn) [I-28, (2S,4R)-1-((2S)-2-(6-(4-(4-(3-(3-amino-6-(2-hydroxyphenyl)pyridazin-4-yl)-3,8-diazabicyclo[3.2.1]octan-8-yl)phenyl)piperidin-1-yl)spiro[3.3]heptane-2-carboxamido)-3,3-dimethylbutanoyl)-4-hydroxy-N-((6-(4-methylthiazol-5-yl)pyridin-3-yl)methyl)pyrrolidine-2-carboxamide], for which the DC50 at SMARCA2 [1] (MV4-11 cells) was 100 to 500 nM; at SMARCA4 (MV4-11 cells) it was more than 1000 nM; on SMARCA2 [2] (A549 cells) it was more than 1000 nM.
Consider `Cn1nccc1-c1ccc(CNC(=O)[C@@H]2C[C@@H](O)CN2C(=O)[C@@H](NC(=O)[C@H]2CC[C@H](c3cnc(N4C5CCC4CN(c4cc(-c6ccccc6O)nnc4N)C5)nc3)CC2)C(C)(C)C)cc1` [I-68, (2S,4R)-1-((2S)-2-((1r,4S)-4-(2-(3-(3-amino-6-(2-hydroxyphenyl)pyridazin-4-yl)-3,8-diazabicyclo[3.2.1]octan-8-yl)pyrimidin-5-yl)cyclohexanecarboxamido)-3,3-dime-thylbutanoyl)-4-hydroxy-N-(4-(1-methyl-1H-pyrazol-5-yl)benzyl)pyrrolidine-2-carboxamide], for which the maximal degradation (Dmax) on SMARCA2 [1], on SMARCA4 and on SMARCA2 [2] was more than 90% each time. Besides, the DC50 at SMARCA2 [1] (MV4-11 cells), on SMARCA4 (MV4-11 cells) and on SMARCA2 [2] (A549 cells) was less than 100 nM in each case.
As for `Cc1ncsc1-c1ccc(CNC(=O)[C@@H]2C[C@@H](O)CN2C(=O)[C@@H](NC(=O)C2CC3(C2)CC(N2CCC(COc4ccc(N5C6CCC5CN(c5cc(-c7ccccc7O)nnc5N)C6)cn4)CC2)C3)C(C)(C)C)cc1` (stereo partly drawn) [I-41, (2S,4R)-1-((2S)-2-(6-(4-(((5-(3-(3-amino-6-(2-hydroxyphenyl)pyridazin-4-yl)-3,8-diazabi-cyclo[3.2.1]octan-8-yl)pyridin-2-yl)oxy)methyl)piperidin-1-yl)spiro[3.3]heptane-2-carbox-amido)-3,3-dimethylbutanoyl)-4-hydroxy-N-(4-(4-methylthiazol-5-yl)benzyl)pyrrolidine-2-carboxamide], the maximal degradation (Dmax) on SMARCA2 [1] is less than 50%; on SMARCA4, more than 90%; at SMARCA2 [2], 50 to 70%. Moreover, the 50% degradation concentration (DC50) at SMARCA2 [1] (MV4-11 cells), at SMARCA4 (MV4-11 cells) and at SMARCA2 [2] (A549 cells) was more than 1000 nM in each case.
